This note sets out measurements from ChEMBL document CHEMBL3593229, “Identification of a potent 5-phenyl-thiazol-2-ylamine-based inhibitor of FLT3 with activity against drug resistance-conferring point mutations” (Eur J Med Chem, 2015).

Some results are limits rather than exact numbers.

Data set [1] addresses T1, Receptor-type tyrosine-protein kinase FLT3 (Homo sapiens, UniProt P36888).
T1 sequence (P36888 whole entry): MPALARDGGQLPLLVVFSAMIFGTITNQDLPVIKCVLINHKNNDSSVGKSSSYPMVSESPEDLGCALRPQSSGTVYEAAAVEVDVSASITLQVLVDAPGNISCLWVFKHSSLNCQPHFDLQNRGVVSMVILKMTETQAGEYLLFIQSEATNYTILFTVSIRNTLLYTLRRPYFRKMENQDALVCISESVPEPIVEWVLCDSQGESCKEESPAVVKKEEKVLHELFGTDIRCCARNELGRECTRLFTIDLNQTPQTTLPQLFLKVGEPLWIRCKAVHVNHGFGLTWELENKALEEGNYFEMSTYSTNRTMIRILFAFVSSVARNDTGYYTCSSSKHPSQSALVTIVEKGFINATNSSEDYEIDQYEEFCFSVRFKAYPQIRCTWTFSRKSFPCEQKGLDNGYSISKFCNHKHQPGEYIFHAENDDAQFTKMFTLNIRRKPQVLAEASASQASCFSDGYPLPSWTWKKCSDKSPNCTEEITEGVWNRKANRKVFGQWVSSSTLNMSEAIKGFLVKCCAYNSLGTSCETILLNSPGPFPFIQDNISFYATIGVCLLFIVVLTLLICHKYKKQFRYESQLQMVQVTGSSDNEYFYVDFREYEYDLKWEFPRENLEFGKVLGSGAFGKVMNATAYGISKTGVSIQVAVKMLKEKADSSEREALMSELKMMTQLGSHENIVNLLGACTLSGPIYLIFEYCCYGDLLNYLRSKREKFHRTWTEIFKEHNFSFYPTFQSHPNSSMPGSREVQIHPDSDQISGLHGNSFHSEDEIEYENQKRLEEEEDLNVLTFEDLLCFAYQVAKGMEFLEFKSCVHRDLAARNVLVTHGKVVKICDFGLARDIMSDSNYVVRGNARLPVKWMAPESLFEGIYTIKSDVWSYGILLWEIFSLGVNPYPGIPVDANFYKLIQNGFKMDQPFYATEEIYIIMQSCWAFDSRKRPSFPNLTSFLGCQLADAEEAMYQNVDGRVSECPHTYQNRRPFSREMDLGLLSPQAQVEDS
Description: biochemical. The format is cell-based, Sf9.
Description: Inhibition of wild type GST-tagged FLT3 kinase domain (Y567 to S993) (unknown origin) expressed in baculovirus infected insect Sf9 cells using Her2 peptide as substrate after 4 hrs by Kinase-Glo assay

The subject of data set [2] is Receptor-type tyrosine-protein kinase FLT3 (Homo sapiens), P36888 [UNDEFINED MUTATION]. The settings on record: MOLM-13.
Description: Inhibition of FLT3 ITD heterozygous mutant in human MOLM-13 cells assessed as cell growth inhibition after 72 hrs by MTS assay
The target of data set [3] is Vascular endothelial growth factor receptor 2 (Homo sapiens, UniProt P35968). Briefly: biochemical. The format is cell-based, Sf9.
Description: Inhibition of recombinant GST-tagged VEGFR2 kinase domain (V789 to V1356) (unknown origin) expressed in insect Sf9 cells using polyGlu4:Tyr peptide as substrate after 120 mins by Kinase-Glo assay
In data set [4] the target is T2, Aurora kinase A (Homo sapiens, UniProt O14965).
T2 sequence (O14965 whole entry): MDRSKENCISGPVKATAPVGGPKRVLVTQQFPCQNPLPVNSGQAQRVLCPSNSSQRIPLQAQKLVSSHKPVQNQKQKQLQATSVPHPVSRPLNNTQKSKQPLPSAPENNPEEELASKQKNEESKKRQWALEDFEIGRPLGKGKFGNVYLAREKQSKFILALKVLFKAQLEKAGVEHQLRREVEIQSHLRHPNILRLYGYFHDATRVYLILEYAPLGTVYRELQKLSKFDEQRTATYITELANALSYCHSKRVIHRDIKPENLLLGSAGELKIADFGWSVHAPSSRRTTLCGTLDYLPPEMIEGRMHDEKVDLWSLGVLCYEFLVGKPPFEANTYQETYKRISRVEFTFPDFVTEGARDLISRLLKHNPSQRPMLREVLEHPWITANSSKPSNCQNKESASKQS
Description: biochemical.
Description: Inhibition of recombinant GST-tagged Aurora-A kinase domain (S123 to S401) (unknown origin) expressed in insect Sf9 cells using tetra(LRRASLG) peptide as substrate after 90 mins by Kinase-Glo assay

Data set [5] is described as follows: AUC (0 to infinity) in Sprague-Dawley rat at 10 mg/kg, po. Format: ADME, organism-based. Set-up: dose 10 mg/kg, time infinity, route oral. The settings on record: in vivo.
A short description of data set [6]: Oral bioavailability in Sprague-Dawley rat at 10 mg/kg. Format: ADME, organism-based. The settings on record: in vivo.

Chain of Vascular endothelial growth factor receptor 2 (P35968 whole entry): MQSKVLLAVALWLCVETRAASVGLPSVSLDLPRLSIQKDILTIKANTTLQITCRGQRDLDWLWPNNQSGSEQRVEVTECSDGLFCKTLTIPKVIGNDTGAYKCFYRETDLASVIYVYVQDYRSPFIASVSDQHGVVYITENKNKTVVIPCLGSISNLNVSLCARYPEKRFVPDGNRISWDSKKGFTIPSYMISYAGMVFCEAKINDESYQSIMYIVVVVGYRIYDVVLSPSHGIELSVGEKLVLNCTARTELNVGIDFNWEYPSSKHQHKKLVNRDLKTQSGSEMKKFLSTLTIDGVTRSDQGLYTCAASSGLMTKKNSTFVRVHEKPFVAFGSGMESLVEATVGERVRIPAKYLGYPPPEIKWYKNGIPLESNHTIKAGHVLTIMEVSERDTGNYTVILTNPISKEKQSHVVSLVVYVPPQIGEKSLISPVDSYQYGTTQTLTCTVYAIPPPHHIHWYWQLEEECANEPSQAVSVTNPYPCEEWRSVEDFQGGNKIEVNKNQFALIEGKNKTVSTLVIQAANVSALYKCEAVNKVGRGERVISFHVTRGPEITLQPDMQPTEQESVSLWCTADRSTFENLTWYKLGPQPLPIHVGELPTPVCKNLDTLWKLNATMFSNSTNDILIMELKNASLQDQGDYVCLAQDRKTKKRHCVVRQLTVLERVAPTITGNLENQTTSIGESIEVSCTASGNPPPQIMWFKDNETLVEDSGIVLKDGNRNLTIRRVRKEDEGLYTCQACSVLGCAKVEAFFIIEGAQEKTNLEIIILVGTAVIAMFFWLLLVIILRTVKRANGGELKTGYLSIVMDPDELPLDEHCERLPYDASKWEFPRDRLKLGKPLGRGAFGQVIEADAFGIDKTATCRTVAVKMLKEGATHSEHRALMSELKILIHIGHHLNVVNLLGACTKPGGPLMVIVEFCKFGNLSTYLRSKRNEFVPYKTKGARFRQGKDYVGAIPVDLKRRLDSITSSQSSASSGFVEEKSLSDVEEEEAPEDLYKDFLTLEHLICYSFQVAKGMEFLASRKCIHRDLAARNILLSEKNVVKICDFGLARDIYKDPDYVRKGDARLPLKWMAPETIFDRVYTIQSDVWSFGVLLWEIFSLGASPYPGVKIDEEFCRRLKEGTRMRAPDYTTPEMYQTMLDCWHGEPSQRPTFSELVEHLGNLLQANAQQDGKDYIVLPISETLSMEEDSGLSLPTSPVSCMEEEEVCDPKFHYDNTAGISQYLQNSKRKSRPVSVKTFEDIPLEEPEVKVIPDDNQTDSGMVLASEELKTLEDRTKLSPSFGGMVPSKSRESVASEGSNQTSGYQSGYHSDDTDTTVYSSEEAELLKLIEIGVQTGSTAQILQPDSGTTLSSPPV

One may read the IC50 as the point on the concentration scale where inhibition reaches its midpoint. A high value points to a need for much substance. By GI50 is commonly meant the concentration that inhibits growth by half. Higher therefore signals lower sensitivity of the cells. For `CCN1CCN(c2cc(Nc3ncc(-c4ccc(NS(=O)(=O)c5ccccc5)cc4)s3)nc(C)n2)CC1`, the IC50 in data set [1] was determined as 520 nM; in data set [3], 170 nM; in data set [4], 43 nM. This compound registered a GI50 in data set [2] of 140 nM.

In the case of `CCN1CCN(c2cc(Nc3ncc(-c4ccc(NC(=O)Nc5ccc(Cl)cc5)cc4)s3)nc(C)n2)CC1`, the IC50 in data set [1] was found to be 320 nM; in data set [3], 43 nM; in data set [4], 95 nM. In addition, growth in data set [2] was halved (GI50) at 9 nM.

Take `Cc1nc(Nc2ncc(-c3ccc(NC(=O)Nc4ccccc4)cc3)s2)cc(N2CCN(C)CC2)n1`: the IC50 in data set [1] was 79 nM; in data set [3], 160 nM; in data set [4] it was over 10000 nM. In data set [2], the concentration for 50% growth inhibition (GI50) is 24 nM.

As usually defined, the AUC(0-inf) is the area under the concentration-time curve extrapolated to infinity. A low value points to less exposure. `CCN1CCN(c2cc(Nc3ncc(-c4ccc(NC(=O)OCc5ccccc5)cc4)s3)nc(C)n2)CC1` had an AUC(0-inf) in data set [5] of 66 ng·h/mL. The IC50 in data set [1] stood at 83 nM; in data set [3], 120 nM; in data set [4] it was 320 nM. This compound displayed a GI50 in data set [2] of 3 nM.

`Cc1nc(Nc2ncc(-c3ccc(NC(=O)Nc4ccccc4)cc3)s2)cc(N2CCC(N)CC2)n1`: the IC50 in data set [1] worked out at 73 nM; in data set [3] it was 53 nM; in data set [4], 150 nM. In data set [2], this compound gave a GI50 of 16 nM.

`CCCCc1cc(NC(=O)Nc2ccc(-c3cnc(Nc4cc(N5CCN(C)CC5)nc(C)n4)s3)cc2)no1`: the IC50 stood at 22 nM in data set [1], 55 nM in data set [3] and 38 nM in data set [4]. Also, halving of growth in data set [2] (GI50) required 14 nM.

Regarding `Cc1cc(NC(=O)Nc2ccc(-c3cnc(NC(=O)c4ccc(OCCN5CCOCC5)cc4)s3)cc2)no1`, the IC50 in data set [1] came out at 580 nM; in data set [3], 370 nM; in data set [4] it was 25 nM. This compound showed a GI50 in data set [2] of 210 nM.

For `CCN1CCN(c2cc(Nc3ncc(-c4ccc(NC(=O)Nc5cc(C6CC6)on5)cc4)s3)nc(C)n2)CC1`, the IC50 was determined as 33 nM in data set [1], 15 nM in data set [3] and 36 nM in data set [4]. In addition, it took 2 nM to inhibit growth in data set [2] by half (GI50).

As to `CCN1CCN(c2cc(Nc3ncc(-c4ccc(NC(=O)c5ccccc5)cc4)s3)nc(C)n2)CC1`, the figures for the IC50 in data set [1], in data set [3] and in data set [4] were 850 nM, over 1000 nM and 140 nM, respectively. The compound further came in with a GI50 in data set [2] of 19 nM.

As for `CCc1cc(NC(=O)Nc2ccc(-c3cnc(Nc4cc(N5CCC(N)C5)nc(C)n4)s3)cc2)no1` (centres undefined), the GI50 in data set [2] was determined as 3 nM.

A word on the bioavailability: it is dose-corrected exposure relative to a reference, in per cent. Read a low bioavailability as poor availability. For the compound `Cc1nc(Nc2ncc(-c3ccc(NC(=O)Nc4cc(C)on4)cc3)s2)cc(N2CCN(C)CC2)n1`, in data set [5], the AUC(0-inf) was 313 ng·h/mL. Moreover, the half-maximal inhibitory concentration (IC50) in data set [1] is 10 nM; in data set [3] it was 15 nM; in data set [4] it was 56 nM. The same compound displayed a GI50 in data set [2] of 1 nM. Besides, the bioavailability in data set [6] came out at 10%.

`Cc1nc(Nc2ncc(-c3ccc(NC(=O)Nc4cccc(Cl)c4)cc3)s2)cc(N2CCNCC2)n1`: the IC50 in data set [1] was found to be 20 nM; in data set [3], 31 nM; in data set [4], 270 nM. Also, the concentration for 50% growth inhibition (GI50) in data set [2] amounted to 24 nM.

For the compound `CCc1cc(NC(=O)Nc2ccc(-c3cnc(Nc4cc(N5CCN(C)CC5)nc(C)n4)s3)cc2)no1`, in data set [5], the AUC(0-inf) turned out to be 632 ng·h/mL. The concentration for half-maximal inhibition (IC50) in data set [1] stood at 49 nM; in data set [3], 10 nM; in data set [4] it was 41 nM. Besides, in data set [2], the GI50 was 3 nM. The compound also displayed a bioavailability in data set [6] of 18%.
